“And” between values parts separate entries of the source, which are not always exact repeats. Equal values may be shown once. “Also recorded” adds a separate entry of the source.
Legend:
5-LOX = system: 5-LOX; design: method as in PMID 37111306; details: cited from earlier work
MRC-5 cells = assay: MTT cytotoxicity assay, MRC-5 normal fibroblasts; type: cell-based, human; details: Homo sapiens, MRC5, 72 h, MTT, 72 h after treatment, mean ± SEM; healthy cell line
HT-29 cells [1] = assay: MTT cytotoxicity assay, HT-29; type: cell-based, human; details: for IC50: Homo sapiens, HT-29, MTT, 72 h after treatment, mean ± SEM; for Selectivity index (IC50 normal cell line/IC50 cancer cell lines), HT-29: MRC-5 / HT-29, in brackets
Protocol: (§1) SW620 cells were cultured in Dulbecco’s Modified Eagle’s medium (DMEM, Sigma-Aldrich Chemie GmbH, Steinheim, Germany) and supplemented in the same manner as the previously mentioned cell lines. Cells were grown in cell culture flasks T25 (Sarstedt AG & Co., Nümbrecht, Germany) at appropriate cell densities in the culture medium prior to exposure to treatments. Stock solutions of each compound, prepared in DMSO, were diluted in the culture medium to obtain the appropriate final concentrations.
(§2) The viability of the control and cells treated with the tested compounds was determined by MTT assay. Cells were seeded in 96-well plates at a density of 2000 cells/well, allowed to attach overnight, and then treated with rising concentrations of testing compounds. The ability of viable cells to reduce 3-(4,5-dimethylthiazol-2-yl)-2,5-diphenyltetrazolium bromide into blue-purple formazan crystals, was measured 72 h after the treatments. Namely, l mg/mL of MTT reagent (Sigma-Aldrich Chemie GmbH, Steinheim, Germany) was added to each well and incubated for an additional 4 h. Finally, upon removal of the medium containing MTT, 200 µL of DMSO was added to each well.

HT-29 cells [2] = assay: SRB assay, compound plus γ-radiation, HT-29; type: cell-based, human; details: IC50 concentration 24 h before 2 Gy γ-radiation, SRB 72 h after irradiation
Protocol: (§3) In the experiments involving irradiation, cells were irradiated at room temperature, in the vertical position with the cell monolayer facing ^60Co γ-rays (CIRUS-Cis Biointernational). The irradiation of samples was performed in Vinča Institute of Nuclear Sciences, Belgrade, Serbia. In all experiments, a clinically relevant radiation dose of 2 Gy with the dose rate of ~1 Gy/min was applied.
(§4) For the evaluation of cell viability after treatments with radiation as well as after combined treatments, a sulforhodamine B (SRB) protein binding assay was used. This assay is based on the staining of cellular proteins. Maintaining conditions were identical to that of MTT assay. The cells were pretreated with IC50 concentrations of tested compounds for 24 h before irradiations. Following the 72 h post-irradiation incubation time under standard conditions (5% CO2, 37 °C) cells were fixed by protein precipitation with 10% trichloroacetic acid (TCA) at 4 °C for 1 h. Plates were rinsed with distillated water and stained with 0.4% SRB (Sigma-Aldrich Chemie GmbH, Steinheim, Germany) in 1% acetic acid, for 15 min at room temperature. Excess stain was removed by washing the wells in 1% acetic acid. After being rinsed, microwell plates were air dried until no staining moisture was visible. Bound dye was dissolved in 10 mM unbuffered Tris base (pH 10.5) for 5 min on a gyratory shaker. The absorbance of each well was measured using a microplate reader (Wallac VICTOR2 1420 Multilabel counter, PerkinElmer, Turku, Finland) at a test wavelength of 550 nm.

BxPC-3 cells [3] = assay: MTT cytotoxicity assay, BxPC-3; type: cell-based, human; details: for IC50: Homo sapiens, BXPC-3, 72 h, MTT, 72 h after treatment, mean ± SEM; for Selectivity index (IC50 normal cell line/IC50 cancer cell lines), BxPC-3: MRC-5 / BxPC-3, in brackets
Protocol: as §1, §2

HCT 116 cells [4] = assay: MTT cytotoxicity assay, HCT 116; type: cell-based, human; details: for IC50: Homo sapiens, HCT-116, MTT, 72 h after treatment, mean ± SEM; for Selectivity index (IC50 normal cell line/IC50 cancer cell lines), HCT 116: MRC-5 / HCT 116, in brackets
Protocol: as §1, §2

BxPC-3 cells [5] = assay: SRB assay, compound plus γ-radiation, BxPC-3; type: cell-based, human; details: IC50 concentration 24 h before 2 Gy γ-radiation, SRB 72 h after irradiation
Protocol: as §3
as §4, with “After being rinsed, microwell plates were air dried until no staining moisture was visible. Bound dye was dissolved in 10 mM unbuffered Tris base (pH 10.5) for 5 min on a gyratory shaker.” left out

[6] = system: zebrafish (Danio rerio) embryos; assay: in vivo; details: embryos exposed for five days, up to 50 µM; cardiotoxicity, hepatotoxicity, malformations
Protocol: (§5) Wild-type (AB) zebrafish embryos, kindly provided by Dr. Ana Cvejić (Wellcome Trust Sanger Institute, Cambridge, UK), were raised to adult stage in a temperature- and light-controlled zebrafish facility at 28 °C and a standard 14:10 h light–dark photoperiod. Fish were fed with commercial dry food (SDS200 and SDS300 granular food; Special Diet Services, Essex; UK and TetraMinTM flakes; Tetra Melle, Germany) twice a day, and with Artemia nauplii daily.
(§6) Embryos produced by pairwise mating were washed to remove debris, distributed at 10 per well into 24-well plates containing 1 mL of E3 medium (5 mM NaCl, 0.17 mM KCl, 0.33 mM CaCl2 and 0.33 mM MgSO4 in distilled water) and maintained at 28 °C. […] Dead embryos were recorded and discarded every 24 h. […] Experiments were performed in triplicate using 30 embryos for each concentration. At 120 hpf, embryos were anesthetized by the addition of 0.1% (w/v) tricaine solution (Sigma-Aldrich, St. Louis, MO, USA), photographed, and killed by freezing at −20 °C for ≥24 h.

in vivo = details: in vivo
Protocol: as §5, §6

HCT 116 cells [7] = assay: SRB assay, compound plus γ-radiation, HCT 116; type: cell-based, human; details: IC50 concentration 24 h before 2 Gy γ-radiation, SRB 72 h after irradiation
Protocol: as §4, with “In the experiments involving irradiation, cells were irradiated at room temperature, in the vertical position with the cell monolayer facing ^60Co γ-rays (CIRUS-Cis Biointernational). The irradiation of samples was performed in Vinča Institute of Nuclear Sciences, Belgrade, Serbia. In all experiments, a clinically relevant radiation dose of 2 Gy with the dose rate of ~1 Gy/min was applied. For” for “For”, “After being rinsed, microwell plates were air dried until no staining moisture was visible. Bound dye was dissolved in 10 mM unbuffered Tris base (pH 10.5) for 5 min on a gyratory shaker.” left out

SW620 cells [8] = assay: Wound-healing assay; type: cell-based, human; details: 25 μM
Protocol: The migratory potential of SW620 cells (human colon carcinoma cell line) was evaluated by a wound-healing assay. Cells were seeded in density of 300,000 cells per well in 24-well tissue culture microplates and grown for 24 h in DMEM medium supplemented with 10% FBS, penicillin/streptomycin and L-glutamine at 37 °C in a humidified atmosphere containing 5% CO2. Upon reaching confluence, a uniform wound was scratched into a monolayer of each well with a sterile plastic 200 μL micropipette tip. After wounding, the medium was replaced and cells were further treated with 25 μM of compounds 1, 2, 3, and 5 for 24 h and 48 h. Wound closure was monitored by imaging cells at 4× magnification using the ImageXpress® Pico Automated Cell Imaging System (Molecular Devices®, San Jose, CA, USA) immediately (T0), and at 24 h (T24) and 48 h (T48) after wounding. The captured images were analyzed by ImageJ software v. 1.52p (U.S. National Institutes of Health, Bethesda, MD, USA) to measure the degree of closure of the wounded area. Independent experiments were performed three times.

SW620 cells [9] = assay: Cytotoxicity in SW620 cells after 24 h treatment (Table S2); type: cell-based; details: Homo sapiens, SW-620, read-out: IC50 (µM) following 24h treatment in SW620 cells
COX-2 = system: COX-2; design: method as in PMID 37111306; details: cited from earlier work

SMILES	IC50 (5-LOX) [µM]	IC50 (MRC-5 cells) [µM]	IC50 (HT-29 cells [1]) [µM]	cell proliferation, combined treatment versus radiation alone, HT-29 (HT-29 cells [2])	IC50 (BxPC-3 cells [3]) [µM]	Selectivity index (IC50 normal cell line/IC50 cancer cell lines), BxPC-3 (BxPC-3 cells [3])	IC50 (HCT 116 cells [4]) [µM]	Selectivity index (IC50 normal cell line/IC50 cancer cell lines), HCT 116 (HCT 116 cells [4])	cell proliferation, combined treatment versus radiation alone, BxPC-3 (BxPC-3 cells [5])	toxic response / adverse side effects in embryos [6]	LC50 (in vivo) [µM]	cell proliferation, combined treatment versus radiation alone, HCT 116 (HCT 116 cells [7])	Relative Wound Closure (%) 24 h (SW620 cells [8]; SW620, 24 h relative to T0, mean ± SEM, control 17.87 ± 3.48)	Relative Wound Closure (%) 48 h (SW620 cells [8]; SW620, 48 h relative to T0, mean ± SEM, control 24.51 ± 1.39)	IC50 (SW620 cells [9]) [µM]	Selectivity index (IC50 normal cell line/IC50 cancer cell lines), HT-29 (HT-29 cells [1])	IC50 (COX-2) [µM]
C#CCNC(=O)c1cc(C(C)(C)C)c(O)c(C(C)(C)C)c1 [Compound 7]	12.6	> 100	> 100	significantly inactivated HT-29 cells	29.2 ± 1.56	> 3.42	30.2 ± 5.07	> 3.31	–	–	–	–	–	–	–	–	–
O=C(NO)NCc1ccccc1Nc1c(Cl)cccc1Cl [Compound 3]	–	> 100	64.6 ± 3.41	–	34.3 ± 1.79	> 2.91	40.8 ± 1.95	> 2.45	significant change in cell inactivation	did not elicit a toxic response; also recorded: no adverse side effects	> 50	lower in comparison to cells that were only irradiated	3.86% and 3.86 ± 0.19%	7.68% and 7.68 ± 2.99%	169 ± 5.7	> 1.55	–
C=CCNC(=O)c1cc(C(C)(C)C)c(O)c(C(C)(C)C)c1 [Compound 6]	–	> 100	24.8 ± 5.4	statistically significant change with respect to radiation	8.63 ± 0.77	> 11.59	23 ± 3.27	> 4.35	statistically significant change with respect to radiation	–	–	–	–	–	–	> 4.04	6.89
